Measurements as given in patent US20090093476A1, “PYRROLO[1,2-A]QUINOXALINE DERIVATIVES AS ADENOSINE A3 RECEPTOR MODULATORS AND USES THEREOF” (FAUST PHARMACEUTICALS, priority 2005, published 2009).

Tests used:
Assay type in all cases: cell-based
HCT 116 = experiment: Cytotoxic activity, MTS assay, HCT 116; conditions: Homo sapiens, HCT 116, 96 hours
Description: (§1) This study aims to determine the cytotoxic activity of a compound of the invention against a panel of ten human cancer cell lines.
(§2) Paclitaxel (Taxol®, ref. T1912, Sigma) is used as positive control.
(§3) Human tumor cells were plated at 5,000 to 10,000 cells per well, with 24 h incubation time before treatment. Tumor cell lines were incubated for 96 hours with 10 concentrations, in ¼ dilution steps, of compound of the invention (from 3.8×10^−10 to 1.0×10^−4 M) and Paclitaxel (from 3.8×10^−13 to 1.0×10^−7 M). Experiments were repeated three times, each concentration being issued from quadruplicate. Control cells were treated with corresponding vehicle alone. At the end of the treatments, the cytotoxic activity was evaluated by a MTS assay (Baltrop J A et al, Bioorg. Med. Chem. Lett. 1991, 611-4).

PC-3 = experiment: Cytotoxic activity, MTS assay, PC-3; conditions: Homo sapiens, PC-3, 96 hours
Description: as §1, §2, §3

PANC-1 = experiment: Cytotoxic activity, MTS assay, PANC-1; conditions: Homo sapiens, PANC-1, 96 hours
Description: as §1, §2, §3

HT-29 = experiment: Cytotoxic activity, MTS assay, HT-29; conditions: Homo sapiens, HT-29, 96 hours
Description: as §1, §2, §3

A2780 = experiment: Cytotoxic activity, MTS assay, A2780; conditions: Homo sapiens, A2780, 96 hours
Description: as §1, §2, §3

U-87 MG = experiment: Cytotoxic activity, MTS assay, U-87 MG; conditions: Homo sapiens, 96 hours
Description: as §1, §2, §3

K-562 = experiment: Cytotoxic activity, MTS assay, K-562; conditions: Homo sapiens, K562, K-562, 96 hours
Description: as §1, §2, §3

U-937 = experiment: Cytotoxic activity, MTS assay, U-937; conditions: Homo sapiens, U-937, 96 hours
Description: as §1, §2, §3

A375 = experiment: Cytotoxic activity, MTS assay, A375; conditions: Homo sapiens, A-375, A375, 96 hours
Description: as §1, §2, §3

HL-60 = experiment: Cytotoxic activity, MTS assay, HL-60; conditions: Homo sapiens, HL-60, 96 hours
Description: as §1, §2, §3

CC(=O)O[C@H]1C(=O)[C@@]2(C)[C@H]([C@H](OC(=O)c3ccccc3)[C@]3(O)C[C@H](OC(=O)[C@H](O)[C@@H](NC(=O)c4ccccc4)c4ccccc4)C(C)=C1C3(C)C)[C@]1(OC(C)=O)CO[C@@H]1C[C@@H]2O [Paclitaxel]
IC50 (HCT 116): 5.57 nM
IC50 (PC-3): 8.8 nM
IC50 (PANC-1): > 100 nM
IC50 (HT-29): 8.29 nM
IC50 (A2780): 77 nM
IC50 (U-87 MG): > 100 nM
IC50 (K-562): 7.6 nM
IC50 (U-937): 5.29 nM
IC50 (A375): 6.52 nM
IC50 (HL-60): 6.65 nM
